For one compound, mutagenic call results are on record in PubChem BioAssay AID1259407 (Chemical Carcinogenesis Research Information System (CCRIS), 2018).

For this series, the system named is CCRIS mutagenicity, Ames/micronucleus/aberration tests. Kind of series: CCRIS mutagenicity studies. The following applies: LIVER.

Structures are written as SMILES. Calls of active or inactive are those of the source. The rule behind the calls is not given here.

Consider `c1ccc2c(c1)ccc1nc3ccc4ccccc4c3cc12`, for which the mutagenic call (Test System: AMES SALMONELLA TYPHIMURIUM, Strain/Indicator: TA98, Metabolic Activation: GUINEA PIG, S-9, 3-METHYLCHOLANTHRENE, Method: STANDARD PLATE) is “inactive; negative”; the mutagenic call (Test System: AMES SALMONELLA TYPHIMURIUM, Strain/Indicator: TA100, Metabolic Activation: GUINEA PIG, S-9, 3-METHYLCHOLANTHRENE, Method: STANDARD PLATE) is “active; positive”; the mutagenic call (Test System: AMES SALMONELLA TYPHIMURIUM, Strain/Indicator: TA100, Metabolic Activation: RAT, S-9, AROCLOR 1254, Method: STANDARD PLATE) was “active; positive”; the mutagenic call (Test System: AMES SALMONELLA TYPHIMURIUM, Strain/Indicator: TA1537, Metabolic Activation: RAT, S-9, AROCLOR 1254, Method: STANDARD PLATE) was “active; positive”; the mutagenic call (Test System: AMES SALMONELLA TYPHIMURIUM, Strain/Indicator: TA1537, Metabolic Activation: RAT, S-9, PHENOBARBITAL, Method: STANDARD PLATE) is “active; positive”; the mutagenic call (Test System: AMES SALMONELLA TYPHIMURIUM, Strain/Indicator: TA1538, Metabolic Activation: RAT, S-9, PHENOBARBITAL, Method: STANDARD PLATE) is “active; positive”. The mutagenic call (Test System: CHINESE HAMSTER V-79, Strain/Indicator: V-79/6-THIOGUANINE, Metabolic Activation: GUINEA PIG, S-9, 3-METHYLCHOLANTHRENE) was “active; positive”.
